Results on three compounds are retold here after patent US4076931A, “Derivatives of an antibiotic XK-62-2 and the process for the production thereof” (Abbott Laboratories, priority 1974, dated 1978).

Converted amounts (≈) assume the structure as drawn. Where two headings read alike, the source gives them in different places. A value given as a limit tells only on which side of the number the result lay.

Type in all cases: cell-based
The subject of assay [1] is Proteus vulgaris ATCC 6897. Description: Minimum inhibitory concentration by agar dilution method, Proteus vulgaris ATCC 6897. The text has this: (§1) Table 1 illustrates minimum inhibitory concentration of 1-N-(α-hydroxy-δ-aminovaleryl)XK-62-2 and 1-N-(α-hydroxy-ε- aminocaproyl)XK-62-2 against various Gram-negative and Gram-positive bacteria determined by agar dilution method.

The next assay concerns Escherichia coli KY 8348. Description: Minimum inhibitory concentration by agar dilution method, Escherichia coli KY 8348. Particulars: for antibacterial activity: Escherichia coli KY 8348, resistant to known aminoglycoside antibiotics, in words; for MIC: KY8348.
Description: as §1
(§2) In the above Table 1, Escherichia coli KY 8327 and KY 8348 respectively produce adenyltransferase and acetyltransferase intracellularly; the former enzyme inactivates kanamycins and gentamicins by adenylation, and the latter inactivates gentamicins by acetylation.
Background: Agar dilution tests growth on a series of plates holding different concentrations.

In assay [2] the test system is Bacillus subtilis No. 10707. Description: Minimum inhibitory concentration by agar dilution method, Bacillus subtilis No. 10707.
Description: as §1

The subject of the next assay is Escherichia coli KY 8327. Description: Minimum inhibitory concentration by agar dilution method, Escherichia coli KY 8327. The settings on record: for antibacterial activity: Escherichia coli KY 8327, resistant to kanamycins and gentamicins, in words; for MIC: KY8327.
Description: as §1, §2

The subject of assay [3] is Escherichia coli strains having R factors. The experiment in a line: Antibacterial activity against Escherichia coli strains having R factors. The settings on record: resistant to known aminoglycoside antibiotics, in words.
Description: as §1

In assay [4] the test system is Staphylococcus aureus ATCC 6538P. The experiment in a line: Minimum inhibitory concentration by agar dilution method, Staphylococcus aureus ATCC 6538P. The settings on record: for MIC: ATCC6538P.
Description: as §1

The subject of assay [5] is Pseudomonas aeruginosa BMH No. 1. Description: Minimum inhibitory concentration by agar dilution method, Pseudomonas aeruginosa BMH No. 1. The settings on record: for MIC: BMHNO.1.
Description: as §1

Assay [6] deals with Salmonella typhosa ATCC 9922. Description: Minimum inhibitory concentration by agar dilution method, Salmonella typhosa ATCC 9922. Particulars: for MIC: Salmonella enterica, read-out: Minimum Inhibitory Concentration.
Description: as §1

The test system of assay [7] is Klebsiella penumoniae ATCC 10031. Description: Minimum inhibitory concentration by agar dilution method, Klebsiella penumoniae ATCC 10031. The settings on record: for MIC: ATCC10031.
Description: as §1

The subject of assay [8] is Shigella sonnel ATCC 9290. The experiment in a line: Minimum inhibitory concentration by agar dilution method, Shigella sonnel ATCC 9290. The settings on record: for MIC: Shigella, ATCC9290, read-out: Minimum Inhibitory Concentration.
Description: as §1

The subject of another assay is Escherichia coli ATCC 26. The experiment in a line: Minimum inhibitory concentration by agar dilution method, Escherichia coli ATCC 26.
Description: as §1

The mark [9] stands for this setting: Escherichia coli KY 8348 (produces acetyltransferase), agar dilution method.
[10] abbreviates: Escherichia coli KY 8327 (produces adenyltransferase), agar dilution method.

“1-N-[L-(-)-α-hydroxy-ε-aminocaproyl]XK-62-2”: the “Minimum Inhibitory Concentration” value was 0.26 µg/mL in assay [1] (Proteus vulgaris ATCC 6897, agar dilution method); 0.065 µg/mL in the assay on Escherichia coli KY 8348 (setting [9]); 0.008 µg/mL in [2]; 0.013 µg/mL in the assay on Escherichia coli KY 8327 (setting [10]); 0.033 µg/mL in assay [4]; 4.17 µg/mL in assay [5]. For the same compound, the “Minimum Inhibitory Concentration” value in assay [6] (Salmonella typhosa ATCC 9922, agar dilution method) is 0.065 µg/mL; in assay [7] it was 0.033 µg/mL; in assay [8] (Shigella sonnel ATCC 9290, agar dilution method), 0.26 µg/mL; in the assay on Escherichia coli ATCC 26 (Escherichia coli ATCC 26, agar dilution method), 0.13 µg/mL. In addition, the figures for the antibacterial activity entry (in the assay on Escherichia coli KY 8348; in the assay on Escherichia coli KY 8327; in [3]) were “very strong antibacterial activity”, “very strong antibacterial activity” and “strong antibacterial activity”, respectively.
Take `CNC[C@@H]1CC[C@@H](N)[C@@H](O[C@H]2[C@H](O)[C@@H](O[C@H]3OC[C@](C)(O)[C@H](NC)[C@H]3O)[C@H](NC(=O)[C@@H](O)CCCN)C[C@@H]2N)O1` [1-N-[L-(-)-α-hydroxy-δ-aminovaleryl]XK-62-2]: the MIC is 0.065 µg/mL (≈ 0.112 µM) in assay [1] (ATCC6897, Proteus vulgaris ATCC 6897, agar dilution method, read-out: Minimum Inhibitory Concentration); 0.033 µg/mL (≈ 0.057 µM) against Escherichia coli KY 8348 (setting [9]); less than 0.004 µg/mL in assay [2]; 0.065 µg/mL (≈ 0.112 µM) against Escherichia coli KY 8327 (setting [10]); 0.008 µg/mL (≈ 0.0138 µM) in assay [4]; 0.52 µg/mL (≈ 0.899 µM) in assay [5]. Further, the MIC in assay [6] is 0.016 µg/mL (≈ 0.0276 µM); in assay [7], 0.008 µg/mL (≈ 0.0138 µM); in [8], 0.065 µg/mL (≈ 0.112 µM); with Escherichia coli ATCC 26 (ATCC26, Escherichia coli ATCC 26, agar dilution method, read-out: Minimum Inhibitory Concentration), 0.033 µg/mL (≈ 0.057 µM). Besides, the values for the antibacterial activity result (in the assay on Escherichia coli KY 8348; in the assay with Escherichia coli KY 8327; in assay [3]) were “very strong antibacterial activity”, “very strong antibacterial activity” and “strong antibacterial activity”, respectively.
For the compound `CNC[C@@H]1CC[C@@H](N)[C@@H](O[C@H]2[C@H](O)[C@@H](O[C@H]3OC[C@](C)(O)[C@H](NC)[C@H]3O)[C@H](N)C[C@@H]2N)O1` [XK-62-2], the MIC was 0.016 µg/mL (≈ 0.0345 µM) in assay [1] (Proteus vulgaris, ATCC6897, read-out: Minimum Inhibitory Concentration); 1.04 µg/mL (≈ 2.24 µM) in the assay with Escherichia coli KY 8348 (setting [9]); less than 0.004 µg/mL in assay [2]; 1.04 µg/mL (≈ 2.24 µM) against Escherichia coli KY 8327 (setting [10]); less than 0.004 µg/mL in [4]; 0.13 µg/mL (≈ 0.28 µM) in assay [5]. Further, the MIC in [6] is 0.008 µg/mL (≈ 0.0173 µM); in assay [7] it was less than 0.004 µg/mL; in assay [8], 0.033 µg/mL (≈ 0.0712 µM); in the assay on Escherichia coli ATCC 26 (Escherichia coli, ATCC26, read-out: Minimum Inhibitory Concentration) it was 0.016 µg/mL (≈ 0.0345 µM).
